The assay has as its system Leukotriene C4 (LTC4) and leukotriene D4 (LTD4) biosynthesis by cultured rat basophilic leukemia cells (RBL-1 cells). Briefly: Inhibition of leukotriene biosynthesis (LTC4 and LTD4, ionophore-induced) in cultured RBL-1 cells, quantitated by radioimmunoassay. In kind it is cell-based. The conditions noted are these: LTC4 equivalents by [3H]-RIA. How it is done: Leukotriene C4 (LTC4) and leukotriene D4 (LTD4) biosynthesis by cultured rat basophilic leukemia cells (RBL-1 cells) was induced by incubation of the cells with an ionophore. See B. A. Jakschik, S. Falkenheim, and C. W. Parker, "Precursor Role of Arachidonic Acid in Release of Slow Reacting Substance from Rat Basophilic Leukemia Cells," Proc Natl. Acad. Sci. U.S.A., 74, 4577-4581 (1977). The LTC4 and LTD4 biosynthesis was quantitated at LTC4 equivalents by radioimmunoassay using the Leukotriene C4 [^3 H]-RIA Kit available commercially from New England Nuclear, 549 Albany Street, Boston, Mass. Compounds were screened initially at 10^-4 M or 10^-5 M and compared with nordihydroguaiaretic acid (the reference standard). A compound inhibiting leukotriene synthesis at any given concentration by at least 30% relative to the reference standard was considered active. […] Table A lists IC50 's for representative compounds of this invention.
Usually IC50 stands for the concentration at which inhibition is half-maximal. As to `CCOC(=O)CC(=O)C=Cc1ccccc1` [Example 1, ethyl 3-oxo-5-phenyl-4-pentenoate], the IC50 turned out to be 20 µM.
`CCOC(=O)CC(=O)C=Cc1cccc(Oc2ccccc2)c1` [Example 20, ethyl 3-oxo-5-(3-phenoxyphenyl)-4-pentenoate]: the IC50 is 27 µM.
The result for `CCOC(=O)CC(=O)C=Cc1cccc(Oc2ccc(Cl)cc2)c1` [Example 21, ethyl 5-[3-(4-chlorophenoxy)phenyl]-3-oxo-4-pentenoate] reads 26.5 µM; that for `CCOC(=O)CC(=O)C=Cc1ccc(OC)cc1` [Example 23, ethyl 5-(4-methoxyphenyl)-3-oxo-4-pentenoate], 67 µM; that for `CCOC(=O)CC(=O)C=Cc1cccc2ccccc12` [Example 27, ethyl 5-(1-naphthyl)-3-oxo-4-pentenoate], 27.2 µM.

Values taken from patent US4649157A, “Pharmaceutical compositions containing 5-phenyl-1,3-dioxoalkenyl compounds” (G. D. Searle & Co., priority 1986, dated 1987).
